Source: US10544129B2, “Crystalline forms of AP26113, and preparation method thereof” (Crystal Pharmatech Co., Ltd., priority 2016, dated 2020)
In brackets after ≈: the same amount, converted by molar mass. Where two headings read alike, the source gives them in different places.

Tests used:
Type in all cases: physicochemical
Particle size study = test: Particle size study
Protocol: Particle size distribution of Forms CS1 and Form CS2 of the present disclosure and Form A of the prior art are tested. The average particle size of Form A is 12.58 μm, which is too small to be isolated effectively in the crystallization process. The Average particle sizes of Forms CS1 and Form CS2 are 175.0 μm and 151.9 μm, which are much larger than that of Form A. Compared with Form A, Form CS1 and Form CS2 with large particle size have less electrostatic attraction and can be separated more easily during the crystallization process. Moreover, the mixing non uniformity in the preparation process can be avoided, the quality of the drug is more controllable. At the same time, the crystal growth of the large particle size crystals is more perfect, and the adsorption of the solvent or the impurity on the crystals can be avoided, which is more helpful for purification.

[1] = Solubility study in FaSSIF and SGF (saturated solutions, HPLC); conditions: for solubility at 1 h / solubility at 4 h: thermodynamic from solid
Protocol: Samples of Form CS2 of the present disclosure and Form A were suspended in FaSSIF (Fasted state simulated intestinal fluids) and SGF (Simulated gastric fluids) to get saturated solutions. The concentrations of the saturated solutions were measured by high performance liquid chromatography (HPLC) at fixed time points.

[2] = Solubility study in H2O (saturated solutions, HPLC)
Protocol: Samples of Form CS1 of this present disclosure and Form A were suspended in H2O to get saturated solutions. After equilibrated for 1 h and 4 hours, the concentrations of the saturated solutions were measured by high performance liquid chromatography (HPLC).

[3] = Dissolution study (intrinsic dissolution rate, rotating disk); conditions: for Cumulative dissolution: phosphate buffer pH 6.8, 37° C.; for intrinsic dissolution rate: linear fit of cumulative dissolution with time, phosphate buffer pH 6.8
Protocol: The dissolution data were collected on an Agilent 708-DS.
100 mg of Form CS2 and Form A were added into the die of intrinsic dissolution rate (IDR) tooling, and then compressed at 12 KN for 1 min.
Dissolution medium: phosphate buffer (pH 6.8)
Dissolution method: rotating disk
Revolving speed: 1000 rpm
Medium temperature: 37° C.

[4] = Stability study at 25° C./60% RH (XRPD, purity); conditions: one month and three months
Protocol: Approximately 10 mg of Form CS2 were stored in a temperature and humidity controlled chamber at 25° C./60% RH, and samples were taken for XRPD at the beginning and after stored for one month and three months. The results are as depicted in FIG. 13.

average particle size (Particle size study) | solubility in SGF (in words) ([1]; SGF) | Solubility H2O ([2]; 1 h) | Solubility H2O ([2]; 4 h) | Cumulative dissolution ([3]; 10 min) | Cumulative dissolution ([3]; 15 min) | Cumulative dissolution ([3]; 20 min) | Cumulative dissolution ([3]; 25 min) | Cumulative dissolution ([3]; 30 min) | intrinsic dissolution rate [3] | SMILES | also measured
12.58 μm | good solubility | 61 µg/mL (≈ 0.104 mM) | 67 µg/mL (≈ 0.115 mM) | 0.6 mg | 0.9 mg | 1.1 mg | 1.4 mg | 1.6 mg | 0.052 mg/min | COc1cc(N2CCC(N3CCN(C)CC3)CC2)ccc1Nc1ncc(Cl)c(Nc2ccccc2P(C)(C)=O)n1 [Form A, AP26113] | Solubility FaSSIF ([1]; FaSSIF, 1 h): 6900 µg/mL (≈ 11.8 mM); Solubility FaSSIF ([1]; FaSSIF, 4 h): 7200 µg/mL (≈ 12.3 mM); Solubility SGF ([1]; SGF, 1 h): 10900 µg/mL (≈ 18.7 mM); Solubility SGF ([1]; SGF, 4 h): 10900 µg/mL (≈ 18.7 mM); solubility in water (in words) ([2]; water): poor
175.0 μm |  | 1000 µg/mL (≈ 1.71 mM) | 610 µg/mL (≈ 1.04 mM) |  |  |  |  |  |  | COc1cc(N2CCC(N3CCN(C)CC3)CC2)ccc1Nc1ncc(Cl)c(Nc2ccccc2P(C)(C)=O)n1 [Form CS1, AP26113] | solubility in water, times higher than that of Form A ([2]; water, relative to Form A): 16 times
151.9 μm | good solubility |  |  | 6.4 mg | 8.0 mg | 9.4 mg | 10.7 mg | 11.8 mg | 0.268 mg/min | COc1cc(N2CCC(N3CCN(C)CC3)CC2)ccc1Nc1ncc(Cl)c(Nc2ccccc2P(C)(C)=O)n1 [Form CS2, AP26113] | solubility higher than that of Form A ([1]; FaSSIF, one hour, relative to Form A): 43%; solubility at 1 h ([1]; FaSSIF, FaSSIF, 1 h, read-out: Solubility FaSSIF): 9900 µg/mL (≈ 16.9 mM); solubility at 4 h ([1]; FaSSIF, FaSSIF, 4 h, read-out: Solubility FaSSIF): 9600 µg/mL (≈ 16.4 mM); solubility at 1 h ([1]; SGF, simulated gastric fluid, SGF, 1 h, read-out: Solubility SGF): 11200 µg/mL (≈ 19.2 mM); solubility at 4 h ([1]; SGF, simulated gastric fluid, SGF, 4 h, read-out: Solubility SGF): 12100 µg/mL (≈ 20.7 mM); dissolution rate, times higher than that of Form A ([3]; relative to Form A): 5 times; purity after storage ([4]; beginning): above 99%; crystalline form after storage (XRPD) [4]: doesn't change
